Results taken from patent publication US12662455B2, “Tetrahydrobenzo-quinoline sulfonamide derivatives useful as IgE modulators” (UCB Biopharma SRL, priority 2019, dated 2026).

These compounds were tested against T1, IgE-Tb / soluble IgE receptor FcεRIα (Y131A mutation) (Homo sapiens, UniProt P01854, C105A/N146Q/N252Q) (assay: in vitro FRET assay: binding of IgE-Tb to receptor FcεRIα-Y131A-AF488 and inhibition by compounds). Details: 5 nM IgE-Tb, 25 nM FcεRIα-Y131A-AF488, 2 hours at room temperature; read-out: FRET IC50 range.
T1 construct: 86 nmoles of IgE-Fc(N265Q, N371Q) (Young et al., 1995)
T1 sequence (P01854 104-428 isoform P01854-1 C105A/N146Q/N252Q): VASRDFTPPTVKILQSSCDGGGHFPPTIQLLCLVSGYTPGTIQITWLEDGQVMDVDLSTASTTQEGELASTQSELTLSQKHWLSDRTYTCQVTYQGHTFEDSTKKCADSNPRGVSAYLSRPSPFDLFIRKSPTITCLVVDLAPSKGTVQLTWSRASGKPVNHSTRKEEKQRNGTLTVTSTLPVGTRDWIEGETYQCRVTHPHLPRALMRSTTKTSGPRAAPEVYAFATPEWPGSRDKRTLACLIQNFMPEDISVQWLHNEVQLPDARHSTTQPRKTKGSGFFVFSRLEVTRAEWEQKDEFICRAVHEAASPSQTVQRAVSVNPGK
Method: 86 nmoles of IgE-Fc(N265Q, N371Q) (Young et al., 1995) at 172 μM in 100 mM NaHCO3, pH 9.5 was added to 1 mg of LanthaScreen™ Amine Reactive Tb Chelate (ThermoFisher catalogue number PV3583) and incubated for 16 hours at 20° C. The material was then buffer exchanged into Phosphate Buffered Saline (being, 137 mM NaCl, 2.7 mM KCl, 10 mM Na2HPO4, 1.8 mM K2HPO4, pH 7.4) and the material quantified and the degree of Tb conjugation determined by measuring the absorption at 280 nm and 343 nm.
The integrity of the conjugated material was determined by analytical size exclusion chromatography on a S200 HR 10×300 column (GE Healthcare). Typical conjugation ratios were 4:1 Tb:IgE-Fc.
400 nmoles FcεR1α(Y131A mutant) (Cook et al., 1997) at 400 μM in 100 mM NaOAc pH 5.5 was reacted with 1 mM final concentration sodium periodate (in 100 mM NaOAc, pH 5.5) for 60 minutes at 22° C. Oxidation was quenched with the addition of 40 μL of ethanediol and incubation for 60 minutes at 22° C. The protein was buffer exchanged in to conjugation buffer (50 mM NaHCO3, 150 mM NaCl, pH 9.5) and concentrated to 750 μM.
175 nmoles of protein was added to 1 mg of Alexa Fluor™ 488 hydrazide (Invitrogen) and incubated for 16 hours at 22° C. Sodium cyanoborohydride (at 100 mM in conjugation buffer) was added to a final concentration of 1 mM and incubated for 60 minutes on ice. The protein was buffer exchanged into Phosphate Buffered Saline (being, 137 mM NaCl, 2.7 mM KCl, 10 mM Na2HPO4, 1.8 mM K2HPO4, pH 7.4) and the material quantified and the degree of Alexa Fluor™ 488 conjugation determined by measuring the absorption at 280 nm and 495 nm.
The integrity of the conjugated material was determined by analytical size exclusion chromatography on a S200 HR 10×300 column (GE Healthcare). Typical conjugation ratios were 2:1 Alexa Fluor™488: sFcεR1α
The aim was to measure binding of IgE-Tb to receptor, and the inhibition thereof by compounds, using an in vitro Fluorescence Resonance Energy Transfer (FRET) Assay.
FRET reagents used were IgE labelled with Terbium (FRET donor), and soluble IgE receptor FcεRIα with a Y131A mutation, labelled with Alexa Fluor™ 488 (FRET acceptor). Unlabelled FcεRIα was also used to generate a background control. The assay buffer consisted of 20 mM Tris pH7.2, 150 mM NaCl, and 0.002% Tween, 1% DMSO.
The assay was conducted according to the following: Each assay reaction was conducted in a volume of 25 μl in a 384-well half-volume plate. 10 point compound serial dilutions (3-fold) were generated in DMSO at a concentration of ×50 that of the final assay concentration (FAC). Compound solutions were then prepared by IgE-Tb diluting 10-fold in assay buffer. For the assay, 5 μl of diluted compound was added to 10 μl of, followed by addition of 10 μl FcεRIα-Y131A-AF488. FRET reagents FACs were 5 nM IgE-Tb, 25 nM FcεRIα-Y131A-AF488. Usually the top FAC of compound in the assay was 10 μM. The final DMSO concentration was 2%. The minimum signal (MIN) was measured by adding 5 μl unlabelled FcεRIα at 1 μM (FAC=200 nM) to the FRET reagents. The maximum FRET signal (MAX) was measured in wells containing FRET reagents but no compound.
The assay was incubated for 2 hours at room temperature, protected from light and evaporation, and with gentle agitation.
Measurement of FRET for each well was carried out by exciting at 330 nm and measuring emission at 495/520 nm using an Envision plate reader (Perkin Elmer). FRET ratio was calculated as follows: Emission at 520/Emission at 495×1000.
The FRET ratio was used for the data analysis.
Z′ was calculated as follows (σ=standard deviation and μ=mean): 1−((3×σ^MAX)+(3×σMIN))/(μMAX−μMIN)
Z′ above 0.5 was considered a good assay.
Background signal (MIN) was subtracted from all wells. Using the background subtracted values, the percent inhibition by compound in each test-well was calculated as follows: 100−Test-well FRET ratio/MAX FRET ratio×100.
Percent inhibition was plotted against compound concentration. […]
With `CC(C)CNS(=O)(=O)c1cc2c(c3cnc(C4CC4)cc13)C(NS(C)(=O)=O)CCC2` (stereo not drawn) [Example 5, 3-cyclopropyl-10-(methanesulfonamido)-N-(2-methylpropyl)-7,8,9,10-tetrahydrobenzol[h]isoquinoline-5-sulfonamide] the IC50 was 1000 to 5000 nM. `CCNC(=O)NC1CCCc2cc(S(=O)(=O)NCC(C)C)c3cc(C4CC4)ncc3c21` (stereo not drawn) [Example 3, 1-[3-cyclopropyl-5-(2-methylpropylsulfamoyl)-7,8,9,10-tetrahydrobenzo[h]isoquinolin-10-yl]-3-ethylurea] showed an IC50 of 100 to 1000 nM. `CC(C)CNS(=O)(=O)c1cc2c(c3cnc(C4CC4)cc13)CCCC2NS(C)(=O)=O` (stereo not drawn) [Example 4, 3-cyclopropyl-7-(methanesulfonamido)-N-(2-methylpropyl)-7,8,9,10-tetrahydrobenzo[h]isoquinoline-5-sulfonamide] showed an IC50 of 100 to 1000 nM. Work on `CCNC(=O)NC1CCCc2c1cc(S(=O)(=O)NCC(C)C)c1cc(C3CC3)ncc21` (stereo not drawn) [Example 2, 1-[3-cyclopropyl-5-(2-methylpropylsulfamoyl)-7,8,9,10-tetrahydrobenzo[h]isoquinolin-7-yl]-3-ethylurea] yielded an IC50 of 50 to 100 nM. For `CC(C)CNS(=O)(=O)c1cc2c(c3cnc(C4CC4)cc13)CCCC2` [Example 1, 3-cyclopropyl-N-(2-methylpropyl)-7,8,9,10-tetrahydrobenzo[h]isoquinoline-5-sulfonamide], the IC50 was 100 to 1000 nM. Compound `CCOC(=O)c1cn(C2CCCc3c2cc(S(=O)(=O)NCC(C)(C)F)c2cc(C4CC4)ncc32)cn1` (stereo not drawn) [Example 12, ethyl 1-[3-cyclopropyl-5[(2-fluoro-2-methylpropyl)sulfamoyl]-7,8,9,10-tetrahydrobenzo[h]isoquinolin-7-yl]imidazole-4-carboxylate] has an IC50 of 100 to 1000 nM. `CCOC(=O)c1ncn(C2CCCc3c2cc(S(=O)(=O)NCC(C)(C)F)c2cc(C4CC4)ncc32)c1N` (stereo not drawn) [Example 9, ethyl 5-amino-1-[3-cyclopropyl-5-[(2-fluoro-2-methylpropyl)sulfamoyl]-7,8,9,10-tetrahydrobenzo[h]isoquinolin-7-yl]imidazole-4-carboxylate] gave an IC50 of 100 to 1000 nM. For `Cc1cc(Nc2nncn2C2CCCc3c2cc(S(=O)(=O)NCC(C)(C)F)c2cc(C4CC4)ncc32)n(C)n1` (stereo not drawn) [Example 7, 3-cyclopropyl-7-[3-[(2,5-dimethylpyrazol-3-yl)amino]-1,2,4-triazol-4-yl]-N-(2-fluoro-2-methylpropyl)-7,8,9,10-tetrahydrobenzo[h]isoquinoline-5-sulfonamide], the IC50 was 100 to 1000 nM. With `Cn1nnc(-c2ccc(NC3CCCc4cc(S(=O)(=O)NCC(C)(C)F)c5cc(C6CC6)ncc5c43)cn2)n1` (stereo not drawn) [Example 8, 3-cyclopropyl-N-(2-fluoro-2-methylpropyl)-10-[[6-(2-methyltetrazol-5-yl)pyridin-3-yl]amino]-7,8,9,10-tetrahydrobenzo[h]isoquinoline-5-sulfonamide] the IC50 was 100 to 1000 nM. `Cc1noc(-c2cncc(NC3CCCc4c3cc(S(=O)(=O)NCC(C)(C)F)c3cc(C5CC5)ncc43)c2)n1` (stereo not drawn) [Example 10, 3-cyclopropyl-N-(2-fluoro-2-methylpropyl)-7-[[5-(3-methyl-1,2,4-oxadiazol-5-yl)pyridin-3-yl]amino]-7,8,9,10-tetrahydrobenzo[h]isoquinoline-5-sulfonamide] showed an IC50 of 50 to 100 nM. `Cc1cc(NC(=O)NC2CCCc3c2cc(S(=O)(=O)NCC(C)(C)F)c2cc(C4CC4)ncc32)n(C)n1` (stereo not drawn) [Example 11, 1-[3-cyclopropyl-5-[(2-fluoro-2-methylpropyl)sulfamoyl]-7,8,9,10-tetrahydrobenzo[h]isoquinolin-7-yl]-3-(2,5-dimethylpyrazol-3-yl) urea] gave an IC50 of 100 to 1000 nM. `Cn1nnc(-c2ccc(NC3CCCc4c3cc(S(=O)(=O)NCC(C)(C)F)c3cc(C5CC5)ncc43)cn2)n1` (stereo not drawn) [Example 6] showed an IC50 of 10 to 50 nM.
